TGI data for four molecules are collected here from PubChem BioAssay (NCI).

Each structure is given as a SMILES string.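 Exposure lasted 48 hours, with cells grown in 96-well plates and compounds tested at five concentrations. TGI is the concentration that stops growth completely.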

Some test systems named below: BT-549 breast; HCC-2998 colon; HCT-116 colon; MDA-MB-435; NCI-H23 lung; OVCAR-3 ovarian; SK-MEL-2 melanoma; SNB-19 CNS; SR leukemia; U251 CNS.
Common to all, as to assay: inhibition of tumour cell growth, NCI panel, 48 h

Regarding `N#C[C@H](c1nc2ccccc2[nH]1)c1nc2ccccc2nc1Cl`, the TGI is over 47.8 µM in the test on BT-549 breast; over 60.9 µM in the test with HCC-2998 colon; 24.2 µM in the test with HCT-116 colon; over 78 µM in the test on MDA-MB-435; over 54.3 µM in the test with NCI-H23 lung; over 100 µM in the test on OVCAR-3 ovarian. For the same molecule, the TGI in the test with SK-MEL-2 melanoma was over 59.1 µM; in the test with SNB-19 CNS, 38.8 µM; with SR leukemia, 13.8 µM; with U251 CNS, 58.9 µM.
Take `COc1ccc2oc(=O)c(-c3nc4ccccc4s3)cc2c1`: the TGI in the test on BT-549 breast was over 100 µM; in the test with HCC-2998 colon it was over 100 µM; with HCT-116 colon it was 37.6 µM; with MDA-MB-435 it was over 47.1 µM; with NCI-H23 lung, over 63.9 µM; in the test on OVCAR-3 ovarian it was 43.7 µM. The TGI in the test with SK-MEL-2 melanoma was over 100 µM; with SNB-19 CNS, over 100 µM; in the test on SR leukemia, over 100 µM; with U251 CNS, over 49.6 µM.
Consider `COc1ccc(OC)c2c1-c1nnnn1CCC2(C)C`, for which the TGI in the test with BT-549 breast, with HCC-2998 colon, with HCT-116 colon, in the test on MDA-MB-435, in the test with NCI-H23 lung and with OVCAR-3 ovarian was over 100 µM throughout. Also, the TGI with SK-MEL-2 melanoma, in the test on SNB-19 CNS, with SR leukemia and in the test on U251 CNS was over 100 µM throughout.
For the molecule `Cc1c(OCc2cccc3ccccc23)ccc2c(=O)cc(S)oc12`, the TGI with BT-549 breast is over 100 µM; in the test with HCC-2998 colon, over 100 µM; in the test on HCT-116 colon it was 77.5 µM; in the test on MDA-MB-435, 98.6 µM; with NCI-H23 lung it was 80.7 µM; in the test with OVCAR-3 ovarian it was 53.6 µM. Moreover, the TGI with SK-MEL-2 melanoma is 50.4 µM; in the test with SNB-19 CNS, over 100 µM; in the test with SR leukemia it was 62.1 µM; in the test with U251 CNS it was over 100 µM.
